# Laboratory results reported in publication PMC8615215, “Structural and Biochemical Characterization of Thioredoxin-2 from Deinococcus radiodurans” (Antioxidants, 2021).
# Target: T1, DrTrxR (Deinococcus radiodurans, UniProt Q9RSY7)
# T1 construct: gene DR_1982; residues 2-325, non-cleavable N-terminal His6 tag (MHHHHHH), pET-22b, expressed in E. coli BL21(DE3), Ni-NTA and size exclusion
# Experiment: NADPH consumption at […] nm, insulin reduction coupled through DrTrx1 or DrTrx2
# Type: biochemical
# Conditions: 0.1 mM NADPH, 0.1 uM DrTrxR, 0.1 uM DrTrx1 or 0.5 uM DrTrx2, bovine insulin, 50 mM Tris-HCl pH 7.4, room temperature
# T1 sequence (Q9RSY7 entry or part of it): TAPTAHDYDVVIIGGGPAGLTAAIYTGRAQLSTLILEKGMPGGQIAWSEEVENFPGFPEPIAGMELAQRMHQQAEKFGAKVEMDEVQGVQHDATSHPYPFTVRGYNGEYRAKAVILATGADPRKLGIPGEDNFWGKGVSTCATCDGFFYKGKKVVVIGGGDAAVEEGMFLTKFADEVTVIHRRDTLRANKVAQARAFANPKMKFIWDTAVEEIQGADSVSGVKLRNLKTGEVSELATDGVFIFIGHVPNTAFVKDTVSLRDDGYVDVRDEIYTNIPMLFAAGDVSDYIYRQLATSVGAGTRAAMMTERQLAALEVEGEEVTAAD
structure (smiles),measurement,value
NC(=O)C1=CN([C@@H]2O[C@H](COP(=O)(O)OP(=O)(O)OC[C@H]3O[C@@H](n4cnc5c(N)ncnc54)[C@H](OP(=O)(O)O)[C@@H]3O)[C@@H](O)[C@H]2O)C=CC1 [NADPH],"NADPH consumption at 340 nm, insulin reduction coupled through DrTrx1 or DrTrx2","In the presence of DrTrxR/NADPH, both DrTrx1 and DrTrx2 caused a notable decrease"
